Results from patent US12540150B1, “Fluorogenic probe using a Mislow-Evans rearrangement for real-time imaging of hydrogen peroxide” (University of Pittsburgh—Of the Commonwealth System of …, priority 2020, dated 2026).
“And” between values parts separate entries of the source, which are not always exact repeats. Equal entries are not always repeated.

What was measured:
[1] = Kinetics of the reaction of 1 with H2O2
[2] = Stability of 1 under ambient conditions by 1H NMR; assay type: physicochemical; conditions: room temperature, in air
From the text: Since organic selenides are prone to oxidation in air, the stability of 1 under ambient conditions was investigated. To study the stability of 1, the ^1H NMR spectra of 1 in DMSO-d6 were obtained at specified intervals (days 1, 7, 14, 21, 30 and 60). The solution was left at room temperature and in air throughout the entire period.
[drawing 26] were observed. […] Even so, the compound was quite resistant to oxidative decomposition up to 60 days as manifested by the presence of only less than 10% acrolein.

Structure (SMILES): Oc1ccc2c(c1)Oc1cc(O/C=C/C[Se]c3ccccc3)ccc1[C@@]21OCc2ccccc21 [Compound 1, (S,E)-6′-((3-(Phenylselanyl)prop-1-en-1-yl)oxy)-3H-spiro[isobenzofuran-1,9′-xanthen]-3′-ol]
- rate of reaction with H2O2 relative to boronate-based probes [1]: seven times faster
- second order rate constant k ([1]; 5% MeCN in pH 7.5 HEPES buffer 50 mM, [1]=1.7 μM): 9.82 ± 1.11 M⁻¹ s⁻¹
- Slope k′ ([1]; [H2O2] 0.625 mM): 0.00251 s⁻¹
- Slope k′ ([1]; [H2O2] 1.25 mM): 0.01359 s⁻¹
- Slope k′ ([1]; [H2O2] 2.5 mM): 0.02432 s⁻¹
- F-F0 (515 nm) ([1]; [H2O2] = 0.625 mM, 30 s): 145,691 and 101,161 and 83,026
- [1] ([1]; [H2O2] = 0.625 mM, 30 s): 1.3453 µM and 1.4596 µM and 1.5061 µM
- F-F0 (515 nm) ([1]; [H2O2] = 0.625 mM, 90 s): 220,196 and 277,036 and 236,883
- [1] ([1]; [H2O2] = 0.625 mM, 90 s): 1.1541 µM and 1.0082 µM and 1.1113 µM
- F-F0 (515 nm) ([1]; [H2O2] = 0.625 mM, 150 s): 301,900 and 391,059 and 348,470
- [1] ([1]; [H2O2] = 0.625 mM, 150 s): 0.9444 µM and 0.7157 µM and 0.8249 µM
- F-F0 (515 nm) ([1]; [H2O2] = 0.625 mM, 210 s): 355,049 and 458,596 and 422,910
- [1] ([1]; [H2O2] = 0.625 mM, 210 s): 0.8081 µM and 0.5424 µM and 0.6339 µM
- F-F0 (515 nm) ([1]; [H2O2] = 0.625 mM, 270 s): 390,358 and 499,861 and 473,964
- [1] ([1]; [H2O2] = 0.625 mM, 270 s): 0.7175 µM and 0.4365 µM and 0.5029 µM
- F-F0 (515 nm) ([1]; [H2O2] = 0.625 mM, 330 s): 421,561 and 522,358 and 509,584
- [1] ([1]; [H2O2] = 0.625 mM, 330 s): 0.6374 µM and 0.3787 µM and 0.4115 µM
- F-F0 (515 nm) ([1]; [H2O2] = 0.625 mM, 390 s): 450,025 and 534,705 and 536,252
- [1] ([1]; [H2O2] = 0.625 mM, 390 s): 0.5643 µM and 0.3470 µM and 0.3431 µM
- F-F0 (515 nm) ([1]; [H2O2] = 0.625 mM, 450 s): 477,638 and 541,922 and 555,207
- [1] ([1]; [H2O2] = 0.625 mM, 450 s): 0.4935 µM and 0.3285 µM and 0.2944 µM
- F-F0 (515 nm) ([1]; [H2O2] = 0.625 mM, 510 s): 501,767 and 546,290 and 569,868
- [1] ([1]; [H2O2] = 0.625 mM, 510 s): 0.4316 µM and 0.3173 µM and 0.2568 µM
- F-F0 (515 nm) ([1]; [H2O2] = 0.625 mM, 570 s): 524,121 and 550,122 and 581,518
- [1] ([1]; [H2O2] = 0.625 mM, 570 s): 0.3742 µM and 0.3075 µM and 0.2269 µM
- F-F0 (515 nm) ([1]; [H2O2] = 0.625 mM, 630 s): 543,908 and 551,490 and 591,076
- [1] ([1]; [H2O2] = 0.625 mM, 630 s): 0.3234 µM and 0.3040 µM and 0.2024 µM
- F-F0 (515 nm) ([1]; [H2O2] = 0.625 mM, 690 s): 559,985 and 551,741 and 599,176
- [1] ([1]; [H2O2] = 0.625 mM, 690 s): 0.2822 µM and 0.3033 µM and 0.1816 µM
- F-F0 (515 nm) ([1]; [H2O2] = 0.625 mM, 750 s): 570,897 and 553,475 and 603,780
- [1] ([1]; [H2O2] = 0.625 mM, 750 s): 0.2542 µM and 0.2989 µM and 0.1698 µM
- F-F0 (515 nm) ([1]; [H2O2] = 0.625 mM, 810 s): 580,693 and 553,568 and 609,902
- [1] ([1]; [H2O2] = 0.625 mM, 810 s): 0.2290 µM and 0.2986 µM and 0.1541 µM
- F-F0 (515 nm) ([1]; [H2O2] = 0.625 mM, 870 s): 587,536 and 552,326 and 614,108
- F-F0 (515 nm) ([1]; [H2O2] = 1.25 mM, 30 s): 255,659 and 258,915 and 225,047
- [1] ([1]; [H2O2] = 1.25 mM, 30 s): 1.0631 µM and 1.0547 µM and 1.1417 µM
- F-F0 (515 nm) ([1]; [H2O2] = 1.25 mM, 90 s): 364,712 and 517,271 and 484,926
- [1] ([1]; [H2O2] = 1.25 mM, 90 s): 0.7833 µM and 0.3918 µM and 0.4748 µM
- F-F0 (515 nm) ([1]; [H2O2] = 1.25 mM, 150 s): 463,364 and 607,290 and 590,662
- F-F0 (515 nm) ([1]; [H2O2] = 1.25 mM, 210 s): 514,663 and 641,798 and 639,332
- F-F0 (515 nm) ([1]; [H2O2] = 1.25 mM, 270 s): 549,297 and 656,229 and 660,178
- F-F0 (515 nm) ([1]; [H2O2] = 1.25 mM, 330 s): 572,635 and 661,539 and 664,254
- F-F0 (515 nm) ([1]; [H2O2] = 1.25 mM, 390 s): 589,797 and 665,178 and 666,753
- F-F0 (515 nm) ([1]; [H2O2] = 1.25 mM, 450 s): 601,493 and 663,842 and 669,367
- F-F0 (515 nm) ([1]; [H2O2] = 1.25 mM, 510 s): 606,377 and 663,608 and 673,539
- F-F0 (515 nm) ([1]; [H2O2] = 1.25 mM, 570 s): 612,207 and 662,594 and 675,671
- F-F0 (515 nm) ([1]; [H2O2] = 1.25 mM, 630 s): 614,405 and 663,947 and 677,477
- F-F0 (515 nm) ([1]; [H2O2] = 1.25 mM, 690 s): 616,203 and 663,123 and 679,640
- F-F0 (515 nm) ([1]; [H2O2] = 1.25 mM, 750 s): 616,371 and 663,595 and 679,888
- F-F0 (515 nm) ([1]; [H2O2] = 1.25 mM, 810 s): 614,783 and 663,765 and 683,016
- F-F0 (515 nm) ([1]; [H2O2] = 1.25 mM, 870 s): 614,819 and 662,173 and 685,799
- F-F0 (515 nm) ([1]; [H2O2] = 2.5 mM, 30 s): 425,024 and 405,551 and 398,309
- [1] ([1]; [H2O2] = 2.5 mM, 30 s): 0.6285 µM and 0.6785 µM and 0.6971 µM
- F-F0 (515 nm) ([1]; [H2O2] = 2.5 mM, 90 s): 539,467 and 612,814 and 630,136
- F-F0 (515 nm) ([1]; [H2O2] = 2.5 mM, 150 s): 601,940 and 657,981 and 671,946
- F-F0 (515 nm) ([1]; [H2O2] = 2.5 mM, 210 s): 627,168 and 666,435 and 680,181
- F-F0 (515 nm) ([1]; [H2O2] = 2.5 mM, 270 s): 636,230 and 665,190 and 679,366
- F-F0 (515 nm) ([1]; [H2O2] = 2.5 mM, 330 s): 638,753 and 666,173 and 674,138
- F-F0 (515 nm) ([1]; [H2O2] = 2.5 mM, 390 s): 641,141 and 663,899 and 664,993
- F-F0 (515 nm) ([1]; [H2O2] = 2.5 mM, 450 s): 640,270 and 661,893 and 664,416
- F-F0 (515 nm) ([1]; [H2O2] = 2.5 mM, 510 s): 639,383 and 659,509 and 664,003
- F-F0 (515 nm) ([1]; [H2O2] = 2.5 mM, 570 s): 637,346 and 658,746 and 663,104
- F-F0 (515 nm) ([1]; [H2O2] = 2.5 mM, 630 s): 637,422 and 656,826 and 661,222
- F-F0 (515 nm) ([1]; [H2O2] = 2.5 mM, 690 s): 636,174 and 654,911 and 659,002
- F-F0 (515 nm) ([1]; [H2O2] = 2.5 mM, 750 s): 634,294 and 654,494 and 657,410
- F-F0 (515 nm) ([1]; [H2O2] = 2.5 mM, 810 s): 631,953 and 653,606 and 654,988
- F-F0 (515 nm) ([1]; [H2O2] = 2.5 mM, 870 s): 631,346 and 651,140 and 655,338
- half-life ([2]; DMSO-d6 solution, read-out: half-life of cis-trans isomerization of the enol ether (converted)): 60 days
- acrolein present (oxidative decomposition) ([2]; [D6]DMSO, up to 60 days): less than 10%
